The test system of one assay is rice. Kind of assay: Test B pre-/postemergence herbicide test. The class given is in vivo, Oryza sativa. The settings on record: for Rice plant response rating (0 to 100 scale) / Plant response rating, Rice: preemergence. The essentials:
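Formulation: non-phytotoxic solvent mix with surfactant. Timing: preemergence on seed and postemergence on 2–18 cm plants, applied concurrently. Readout after 13–15 d greenhouse: visual 0–100 control rating against controls.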

The test system of a further assay is cocklebur. Description: Test C pre-/postemergence herbicide test. The class given is in vivo, Xanthium strumarium. Conditions: for Cocklebur plant response rating: Preemergence, 500 g ai/ha, scale 0 to 100, 0 no effect, 100 complete control. The essentials: (§1)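 Visual ratings on a 0–100 scale (100 = complete control) made versus untreated controls after 12 to 14 greenhouse days. Test chemicals, formulated in surfactant-containing non-phytotoxic solvent, applied preemergence to planted seeds or postemergence to 1- to 4-leaf plants (2 to 18 cm).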

The next assay has as its system corn. Kind of assay: Test C pre-/postemergence herbicide test. The class given is in vivo, Zea mays. The settings on record: for Corn plant response rating: Preemergence, scale 0 to 100, 0 no effect, 100 complete control. In outline:
as §1

The next assay has as its system johnsongrass. Kind of assay: Test C pre-/postemergence herbicide test. The class given is in vivo, Sorghum halepense. Conditions: for Johnsongrass plant response rating: Preemergence, scale 0 to 100, 0 no effect, 100 complete control. In outline:
as §1

A further assay relates to pigweed. Description: Test C pre-/postemergence herbicide test. The class given is in vivo, Amaranthus retroflexus. The settings on record: for Pigweed plant response rating: Preemergence, scale 0 to 100, 0 no effect, 100 complete control. The essentials:
as §1

In a further assay the test system is velvetleaf. Description: Test C pre-/postemergence herbicide test. The class given is in vivo, Abutilon theophrasti. Conditions: for Velvetleaf plant response rating: Preemergence, scale 0 to 100, 0 no effect, 100 complete control. The essentials:
as §1

Setting [1] is: 125 g ai/ha, 0 = no effect, 100 = complete control.
[2] abbreviates: 62 g ai/ha, preemergence, scale 0 to 100.
The mark [3] stands for this setting: 125 g ai/ha, scale 0 (no effect) to 100 (complete control), visual, 12 to 14 days, preemergence.
Setting [4] is: 250 g ai/ha, scale 0-100, preemergence.
The mark [5] stands for this setting: 500 g ai/ha, visual rating, 0 = no effect, 100 = complete control.
[6] abbreviates: 500 g ai/ha, scale 0 to 100 (0 no effect, 100 complete control), visual, 12 to 14 days, preemergence.
Setting [7] is: 250 g ai/ha, scale 0 to 100 (0 no effect, 100 complete control), visual, 12 to 14 days, preemergence.

As to `CCNC(=O)c1ccc(F)c(NC(=O)c2cn(C(C)(C)C)nc2CC)c1` [Compound 193], the “Rice plant response rating (0 to 100 scale)” value with rice (setting [1]) came to 80. The “Plant response rating, Rice” value with rice (500 g ai/ha, visual rating 0-100, 0 no effect, 100 complete control) was 100. Moreover, the “Plant response rating, Cocklebur” value in the assay on cocklebur (setting [2]) is 0. Further, the “Cocklebur plant response rating” value in the assay on cocklebur amounted to 100. The entries for the “Plant response rating, Corn” value in the assay with corn (setting [2]), in the assay with corn (setting [3]) and in the assay on corn (setting [4]) were 10, 60 and 95, respectively. Further, in the assay with corn (500 g ai/ha), the “Corn plant response rating” value is given as 100. In addition, the “Plant response rating, Johnsongrass” value worked out at 60 in the assay on johnsongrass (setting [2]), 85 in the assay on johnsongrass (setting [3]) and 90 with johnsongrass (setting [4]). In the assay with johnsongrass (500 g ai/ha), the “Johnsongrass plant response rating” value is on record as 100. Also, the “Plant response rating, Pigweed” value in the assay with pigweed (setting [2]), in the assay with pigweed (setting [3]) and in the assay with pigweed (setting [4]) was 100 each time. In addition, the “Pigweed plant response rating” value in the assay on pigweed (500 g ai/ha) stood at 100. Further, the figures for the “Plant response rating, Velvetleaf” value with velvetleaf (setting [2]), in the assay with velvetleaf (setting [3]) and with velvetleaf (setting [4]) were 0, 0 and 70, respectively. Moreover, in the assay with velvetleaf (500 g ai/ha), the “Velvetleaf plant response rating” value is given as 100.

Consider `CCn1nc(C2(C)CC2)cc1C(=O)Nc1cc(C(=O)N2CC=CC2)ccc1F` [Compound 301], for which the “Rice plant response rating (0 to 100 scale)” value with rice (setting [1]) is given as 10. For the same compound, the “Plant response rating, Rice” value in the assay on rice (setting [5]) is recorded as 70. The “Plant response rating, Cocklebur” value with cocklebur (setting [2]), in the assay on cocklebur (setting [3]) and in the assay with cocklebur (setting [4]) was 0 throughout. The “Cocklebur plant response rating” value in the assay with cocklebur came out at 60. Also, the “Plant response rating, Corn” value in the assay on corn (setting [2]) worked out at 10; in the assay with corn (setting [3]), 10; with corn (setting [4]), 40; in the assay on corn (setting [6]) it was 45. In addition, the “Plant response rating, Johnsongrass” value with johnsongrass (setting [2]) came to 30; with johnsongrass (setting [4]), 85; in the assay with johnsongrass (setting [6]), 95. Moreover, the “Plant response rating, Pigweed” value in the assay on pigweed (setting [2]), in the assay on pigweed (setting [3]), in the assay with pigweed (setting [4]) and with pigweed (setting [6]) was 100 each time. Also, the “Plant response rating, Velvetleaf” value stood at 20 in the assay with velvetleaf (setting [2]), 100 in the assay on velvetleaf (setting [4]) and 100 with velvetleaf (setting [6]).

As to `CCNC(=O)c1cccc(NC(=O)c2nn(C(C)(C)C)cc2Br)c1` [Compound 221, 4-bromo-1-(1,1-dimethylethyl)-N-[3-[(ethylamino)carbonyl]phenyl]-1H-pyrazole-3-carboxamide], the plant injury at 125 g/ha in the assay with rice (Oryza sativa, pre-emergence, 336 h, 125 g ai/ha, 0 = no effect, 100 = complete control, read-out: Rice plant response rating (0 to 100 scale)) is 0%. In addition, the plant injury at 500 g/ha in the assay on rice (Oryza sativa, pre-emergence, 336 h, 500 g ai/ha, visual rating, 0 = no effect, 100 = complete control, read-out: Plant response rating, Rice) amounted to 20%. Moreover, the pest or weed control at 62 g/ha in the assay with cocklebur (Xanthium strumarium, pre-emergence, 312 h, 62 g ai/ha, preemergence, scale 0 to 100, read-out: Plant response rating, Cocklebur) stood at 0%; with johnsongrass (Sorghum halepense, pre-emergence, 62 g ai/ha, preemergence, scale 0 to 100, read-out: Plant response rating, Johnsongrass), 0%; in the assay on pigweed (Amaranthus retroflexus, pre-emergence, 62 g ai/ha, preemergence, scale 0 to 100, read-out: Plant response rating, Pigweed) it was 90%; in the assay on velvetleaf (Abutilon theophrasti, pre-emergence, 62 g ai/ha, preemergence, scale 0 to 100, read-out: Plant response rating, Velvetleaf), 0%. In addition, the pest or weed control at 125 g/ha in the assay on cocklebur (Xanthium strumarium, pre-emergence, 312 h, 125 g ai/ha, scale 0 (no effect) to 100 (complete control), visual, 12 to 14 days, read-out: Plant response rating, Cocklebur) was determined as 0%; with johnsongrass (Sorghum halepense, pre-emergence, 125 g ai/ha, scale 0 (no effect) to 100 (complete control), visual, 12 to 14 days, read-out: Plant response rating, Johnsongrass) it was 0%; in the assay with pigweed (Amaranthus retroflexus, pre-emergence, 125 g ai/ha, scale 0 (no effect) to 100 (complete control), visual, 12 to 14 days, read-out: Plant response rating, Pigweed), 100%. Also, the pest or weed control at 250 g/ha with cocklebur (Xanthium strumarium, pre-emergence, 312 h, 250 g ai/ha, scale 0-100, read-out: Plant response rating, Cocklebur) is 0%; in the assay with johnsongrass (Sorghum halepense, pre-emergence, 250 g ai/ha, scale 0-100, read-out: Plant response rating, Johnsongrass), 10%; with pigweed (Amaranthus retroflexus, pre-emergence, 250 g ai/ha, scale 0-100, read-out: Plant response rating, Pigweed), 100%; in the assay with velvetleaf (Abutilon theophrasti, pre-emergence, 250 g ai/ha, scale 0-100, read-out: Plant response rating, Velvetleaf) it was 60%. Besides, the Corn plant response rating (crop injury, 0 = no effect, 100 = complete kill) at 62 g/ha in the assay with corn (Zea mays, pre-emergence, 312 h, 62 g ai/ha, preemergence, scale 0 to 100) is 0%. This compound also displayed a Corn plant response rating (crop injury, 0 = no effect, 100 = complete kill) at 125 g/ha with corn (Zea mays, pre-emergence, 312 h, 125 g ai/ha, scale 0 (no effect) to 100 (complete control), visual, 12 to 14 days) of 0%. Also, the Corn plant response rating (crop injury, 0 = no effect, 100 = complete kill) at 250 g/ha in the assay on corn (Zea mays, pre-emergence, 312 h, 250 g ai/ha, scale 0-100) came to 0%. This compound also displayed a Corn plant response rating (crop injury, 0 = no effect, 100 = complete kill) at 500 g/ha in the assay with corn (Zea mays, pre-emergence, 312 h, 500 g ai/ha, scale 0 to 100 (0 no effect, 100 complete control), visual, 12 to 14 days) of 10%. The pest or weed control at 500 g/ha with johnsongrass (Sorghum halepense, pre-emergence, 500 g ai/ha, scale 0 to 100 (0 no effect, 100 complete control), visual, 12 to 14 days, read-out: Plant response rating, Johnsongrass) was found to be 80%; in the assay on pigweed (Amaranthus retroflexus, pre-emergence, 500 g ai/ha, scale 0 to 100 (0 no effect, 100 complete control), visual, 12 to 14 days, read-out: Plant response rating, Pigweed) it was 100%; in the assay on velvetleaf (Abutilon theophrasti, pre-emergence, 500 g ai/ha, scale 0 to 100 (0 no effect, 100 complete control), visual, 12 to 14 days, read-out: Plant response rating, Velvetleaf), 80%.

For `C=CCn1nc(C(C)(C)C)cc1C(=O)Nc1cccc(C(=O)NCC)c1` [Compound 56], the “Rice plant response rating” value with rice (Preemergence, 500 g ai/ha, scale 0 to 100) was 70. Moreover, in the assay on rice (125 g ai/ha, 0 to 100 scale, 0 is no effect, 100 is complete control), the “Plant response rating, Rice” value was determined as 40. In the assay on cocklebur (62 g ai/ha, preemergence), the “Plant response rating (0 = no effect, 100 = complete control), Cocklebur” value is 0. Moreover, in the assay on cocklebur (setting [3]), the “Plant response rating, Cocklebur” value is listed as 0. In addition, the “Cocklebur plant response rating” value with cocklebur came to 0. For the same compound, the “Plant response rating (0 = no effect, 100 = complete control), Corn” value in the assay with corn (62 g ai/ha, preemergence) came to 0. For the same compound, the “Plant response rating, Corn” value in the assay with corn (setting [3]) and in the assay on corn (setting [7]) was 0 in each case. In addition, the “Corn plant response rating” value with corn (500 g ai/ha) turned out to be 0. Also, the “Plant response rating (0 = no effect, 100 = complete control), Johnsongrass” value in the assay with johnsongrass (62 g ai/ha, preemergence) is recorded as 55. Further, the “Plant response rating, Johnsongrass” value worked out at 70 with johnsongrass (setting [3]) and 85 with johnsongrass (setting [7]). In addition, in the assay on johnsongrass (500 g ai/ha), the “Johnsongrass plant response rating” value is 90. Also, the “Plant response rating (0 = no effect, 100 = complete control), Pigweed” value in the assay on pigweed (62 g ai/ha, preemergence) was 100. Further, the “Plant response rating, Pigweed” value in the assay on pigweed (setting [3]) and in the assay on pigweed (setting [7]) was 100 throughout. Moreover, in the assay on pigweed (500 g ai/ha), the “Pigweed plant response rating” value is reported as 100. For the same compound, the “Plant response rating (0 = no effect, 100 = complete control), Velvetleaf” value with velvetleaf (62 g ai/ha, preemergence) is given as 20. The results for the “Plant response rating, Velvetleaf” value in the assay with velvetleaf (setting [3]) and in the assay with velvetleaf (setting [7]) were 35 and 50, respectively. In addition, the “Velvetleaf plant response rating” value with velvetleaf (500 g ai/ha) stood at 100.

Take `CCn1nc(C(C)(C)C)cc1C(=O)Nc1ccc(OC)c(OC)c1` [Compound 298]: the “Rice plant response rating (0 to 100 scale)” value with rice (setting [1]) is 40. Also, the “Plant response rating, Rice” value in the assay on rice (setting [5]) is recorded as 60. Besides, the “Plant response rating, Cocklebur” value in the assay with cocklebur (setting [2]), in the assay with cocklebur (setting [3]) and in the assay with cocklebur (setting [4]) was 0 throughout. In addition, the “Cocklebur plant response rating” value in the assay with cocklebur is on record as 0. For the same compound, the “Plant response rating, Corn” value is 0 in the assay on corn (setting [2]), 10 in the assay on corn (setting [3]), 15 in the assay on corn (setting [4]) and 30 in the assay with corn (setting [6]). The “Plant response rating, Johnsongrass” value is recorded as 20 in the assay with johnsongrass (setting [2]), 40 in the assay with johnsongrass (setting [3]), 60 in the assay on johnsongrass (setting [4]) and 90 with johnsongrass (setting [6]). Also, the “Plant response rating, Pigweed” value in the assay on pigweed (setting [2]), in the assay with pigweed (setting [3]), with pigweed (setting [4]) and in the assay with pigweed (setting [6]) was 100 in each case. Also, the “Plant response rating, Velvetleaf” value was 60 in the assay on velvetleaf (setting [2]), 100 with velvetleaf (setting [4]) and 100 in the assay on velvetleaf (setting [6]).

(Values after patent publication US20060069132A1, “Azolecarboxamide herbicides” (priority 2004, published 2006).)
